Patent US8143225B2 (priority 2002, dated 2012)
Read-outs that look alike come from different tables or passages of the source.

What was measured:
[1] = Bioavailability of desmopressin conventional tablets (Comparative Example 4); details: male, human, in vivo, po, 200 μg
Excerpt: Thirty-six healthy male volunteers (Caucasian, Black and Hispanic) were enrolled in this study, which was designed as an open label, single dose, 3-way crossover study.

[2] = human, in vivo, cited from earlier work
clinical = details: male, human, in vivo
Experimental: Twenty-four healthy non-smoking male volunteers were enrolled in the present study. The study was designed as a one-centre, open-labelled, randomized, balanced, 4-way cross-over phase I study. […] Between the doses there was a washout period of 72 hours. In order to standardize the buccal mucosa before administration of the orodispersible tablet, the subjects were asked to avoid foods, chewing gun etc. Subjects were allowed to brush their teeth in the morning before dosing, but without toothpaste. […] 3.2 (Pharsight Corporation, US). […] Values below LOQ not followed by values above the LOQ are excluded from the NCA analysis, and set to zero in the descriptive statistics on concentrations.

[3] = system: adult males and females treated for nocturia; test: Clinical observations in adult males and females treated with desmopressin for nocturia; type: in vivo, human
Excerpt: Hyponatremia can result in seizures, cardiac arrhythmias, cerebral edema and death.

[4] = in vivo; cited from earlier work

In the case of NC(=O)CC[C@@H]1NC(=O)[C@H](Cc2ccccc2)NC(=O)[C@H](Cc2ccc(O)cc2)NC(=O)CCSSC[C@@H](C(=O)N2CCC[C@H]2C(=O)N[C@H](CCCN=C(N)N)C(=O)NCC(N)=O)NC(=O)[C@H](CC(N)=O)NC1=O [desmopressin, 1-desamino-8-D-arginine vasopressin], the bioavailability ([1]; oral 1×200 μg tablet (Comparative Example 2)) is given as 0.16%, the bioavailability ([1]; oral 2×100 μg tablets (Comparative Example 3)) is given as 0.13% and the “% Bioavailability” value ([2]; iv) is given as “Intravenous (100) %”. The “% Bioavailability” value ([2]; po) was “Oral (0.1) %”, the bioavailability ([2]; po) was 0.1-0.15% and the “% Bioavailability” value ([2]; sc) was “Subcutaneous (±90) %”. The bioavailability (clinical) was 0.23 to 0.38%, the bioavailability (clinical; bioavailability) was 0.3% and the incidence of nocturia ([3]; oral doses 100 to 400 mcg and intranasal doses 10 to 20 mcg) was “decreased the incidence of nocturia”. The incidence of hyponatremia ([3]; standard oral doses 100 to 400 mcg and intranasal doses 10 to 20 mcg, nocturia patients) was “unexpectedly high incidence of hyponatremia” and the absorption [4] was “not significantly absorbed”.
